Measured values from patent US5614213A, “Use of estriol for treatment of climacteric osteoporosis” (priority 1992, dated 1997).
Entries after “also recorded” stand apart in the source; their conditions may differ.

What was measured:
[1] = tested on: femur bones; experiment: Trabecular proportion of the bone volume (femur histology) after ovariectomy; type: in vivo, Wistar rats
Text: (§1) Investigation of the osteoporotic action of estriol on ovariectomized rats
(§2) 11 week-old female Wistar rats lose a considerable proportion of their bone substance in two weeks after ovariectomy. It was to be investigated whether this effect is preventable through estriol. For this, this hormone was to be applied such that constant hormone levels are established over the whole test period. […] The assumption that estriol has insufficient activity as a partial estrogen antagonist at the bone was also to be examined as another possibility.
(§3) Female Wistar rats from the experimental animal breeders "Biomodelle GmbH", O-1291 Schonwalde (breed: Wistar) were supplied at ages from nine to ten weeks and kept under conventional conditions at a room temperature of 22° C.[…] and under a light regime (14 h light and 10 h dark) in PVC shells with fitted wire covers.
(§4) The animals received standard formulation R 13 feed and drinking water ad libitum.
(§5) At the age of 11 weeks (body weight approximately 220 g) the animals were used in the experiment.
(§6) Subcutaneous application osmotic pumps. Model: Alzet 2002, capacity of the reservoir 200 μl. Throughflow 0.5 μl/hour. Solution of the test substance in propylene glycol.
(§7) The duration of the whole experiment was 3 weeks, 1 week before castration and two weeks (15 days) after castration.
At the end of the experiment the animals were killed and the femur bones fixed for histological investigations according to standard methods, cut with a hard cut microtome and investigated qualitatively and quantitatively as regards morphological features.
The effect on the proportion of trabecular structures in the surface of bone sections was determined as a parameter of the osteoprotective effect of estriol.

[2] = tested on: castrated (OVX) Wistar rats; experiment: Hydroxyproline excretion in 24-h urine of ovariectomized rats after estriol application; type: in vivo; conditions: for Hydroxyproline content in the urine: mean, n = 8
Text: as §1, §2, §3, §4, §5, §6, §7
In the week prior to castration, characteristic parameters. were determined "as starting values" prior to the estrogen-specific bone degradation through ovariectomy (hydroxyproline content in the 24-h-urine, hydroxyproline content and estriol concentration in the serum).
For the determination of the hydroxyproline content in the urine, the collective urine was obtained over 24 hours. For this, the animals were individually placed once a week in diuresis cages which permitted a sufficiently clean collection of urine, separate from faeces. The hydroxyproline content was then determined in the collective urine of each individual animal.
(§8) Hydroxyproline is released during the decomposition of collagen which also accounts for a considerable proportion of the bone substance.

[3] = conjugation with glucuronic acid or sulphate in the liver; cited from earlier work
[4] = tested on: osteoporosis; conditions: cited from earlier work; for prevention of osteoporosis in the climacteric: hormone replacement
[5] = tested on: mastocarcinomas; conditions: mastocarcinoma; induction and promotion phases; cited from earlier work
[6] = tested on: receptor; conditions: in combination with "strong" estrogens; cited from earlier work
[7] = tested on: bones; conditions: dosage quantities of 12 mg/day oral; cited from earlier work
[8] = tested on: castrated (OVX) Wistar rats; experiment: Hydroxyproline level in serum of ovariectomized rats after estriol application; type: in vivo; conditions: for Hydroxyproline content in the serum: mean
Text: as §1, §2, §3, §4, §5, §6, §7
In the week prior to castration, characteristic parameters. were determined "as starting values" prior to the estrogen-specific bone degradation through ovariectomy (hydroxyproline content in the 24-h-urine, hydroxyproline content and estriol concentration in the serum). […]
as §8

[9] = tested on: uterus; conditions: administered once to ovariectomized rats; cited from earlier work
[10] = tested on: arteriosclerotic vascular changes; conditions: hormone replacement; cited from earlier work
[11] = tested on: ovulation in women; conditions: lower dosages than 5 mg/day; cited from earlier work
[12] = OVX + D1, estriol 0.1 μg/24 hrs, day 7 after castration
[13] = OVX + D1, estriol 0.1 μg/24 hrs, day 12 after castration
[14] = OVX + D1, estriol 0.1 μg/24 hrs, day 13 after castration
[15] = OVX + D1, estriol 0.1 μg/24 hrs, day 14 after castration
[16] = OVX + D1, estriol 0.1 μg/24 hrs, day 15 after castration
[17] = OVX + D2, estriol 1.0 μg/24 hrs, day 7 after castration
[18] = OVX + D2, estriol 1.0 μg/24 hrs, day 12 after castration
[19] = OVX + D2, estriol 1.0 μg/24 hrs, day 13 after castration
[20] = OVX + D2, estriol 1.0 μg/24 hrs, day 14 after castration
[21] = OVX + D2, estriol 1.0 μg/24 hrs, day 15 after castration
[22] = OVX + D3, estriol 10.0 μg/24 hrs, day 7 after castration
[23] = OVX + D3, estriol 10.0 μg/24 hrs, day 12 after castration
[24] = OVX + D3, estriol 10.0 μg/24 hrs, day 13 after castration
[25] = OVX + D3, estriol 10.0 μg/24 hrs, day 14 after castration
[26] = OVX + D3, estriol 10.0 μg/24 hrs, day 15 after castration
[27] = OVX + D4, estriol 50.0 μg/24 hrs, day 7 after castration
[28] = OVX + D4, estriol 50.0 μg/24 hrs, day 15 after castration

## C[C@]12CC[C@@H]3c4ccc(O)cc4CC[C@H]3[C@@H]1C[C@@H](O)[C@@H]2O [estriol]
[1]; OVX + 0.1 microg E3/day
  % trabecular proportion of the bone volume: 16.89%
[1]; OVX + 1.0 microg E3/day
  % trabecular proportion of the bone volume: 17.46%
[1]; OVX + 10.0 microg E3/day
  % trabecular proportion of the bone volume: 24.79%
[1]; OVX + 50.0 microg E3/day
  % trabecular proportion of the bone volume: 26.64%
[1]; overall evaluation, uniform levels of active ingredient
  osteoprotective potential: has an osteoprotective potential
[1]; result in words, Table 4
  effect on decomposition of bone mass after castration: alleviated by estriol in a dose-dependent manner
[2]; OVX + D1, estriol 0.1 μg/24 hrs, day 0 after castration (starting value)
  Hydroxyproline content in the urine: 1,46 μmol/1 d
[2]; [12]
  relative change of hydroxyproline content in the urine: 56,95%
  Hydroxyproline content in the urine: 2,15 μmol/1 d
[2]; [13]
  relative change of hydroxyproline content in the urine: 84,62%
  Hydroxyproline content in the urine: 2,41 μmol/1 d
[2]; [14]
  relative change of hydroxyproline content in the urine: 79,03%
  Hydroxyproline content in the urine: 2,51 μmol/1 d
[2]; [15]
  relative change of hydroxyproline content in the urine: 59,47%
  Hydroxyproline content in the urine: 2,11 μmol/1 d
[2]; [16]
  relative change of hydroxyproline content in the urine: 40,95%
  Hydroxyproline content in the urine: 2,00 μmol/1 d
[2]; OVX + D2, estriol 1.0 μg/24 hrs, day 0 after castration (starting value)
  Hydroxyproline content in the urine: 1,63 μmol/1 d
[2]; [17]
  relative change of hydroxyproline content in the urine: 15,48%
  Hydroxyproline content in the urine: 1,94 μmol/1 d
[2]; [18]
  relative change of hydroxyproline content in the urine: 74,86%
  Hydroxyproline content in the urine: 2,97 μmol/1 d
[2]; [19]
  relative change of hydroxyproline content in the urine: 42,71%
  Hydroxyproline content in the urine: 2,40 μmol/1 d
[2]; [20]
  relative change of hydroxyproline content in the urine: 37,83%
  Hydroxyproline content in the urine: 2,31 μmol/1 d
[2]; [21]
  relative change of hydroxyproline content in the urine: 10,69%
  Hydroxyproline content in the urine: 1,83 μmol/1 d
[2]; OVX + D3, estriol 10.0 μg/24 hrs, day 0 after castration (starting value)
  Hydroxyproline content in the urine: 1,67 μmol/1 d
[2]; [22]
  relative change of hydroxyproline content in the urine: 47,88%
  Hydroxyproline content in the urine: 0,88 μmol/1 d
[2]; [23]
  relative change of hydroxyproline content in the urine: -40,47%
  Hydroxyproline content in the urine: 0,98 μmol/1 d
[2]; [24]
  relative change of hydroxyproline content in the urine: -36,63%
  Hydroxyproline content in the urine: 1,04 μmol/1 d
[2]; [25]
  relative change of hydroxyproline content in the urine: -48,91%
  Hydroxyproline content in the urine: 0,94 μmol/1 d
[2]; [26]
  relative change of hydroxyproline content in the urine: -28,45%
  Hydroxyproline content in the urine: 1,16 μmol/1 d
[2]; [27]
  relative change of hydroxyproline content in the urine: -34,52%
[2]; OVX + D4, estriol 50.0 μg/24 hrs, day 12 after castration
  relative change of hydroxyproline content in the urine: -33,26%
[2]; OVX + D4, estriol 50.0 μg/24 hrs, day 13 after castration
  relative change of hydroxyproline content in the urine: -35,04%
[2]; OVX + D4, estriol 50.0 μg/24 hrs, day 14 after castration
  relative change of hydroxyproline content in the urine: -38,21%
[2]; [28]
  relative change of hydroxyproline content in the urine: -40,43%
[2]; result in words, Table 3
  effect on increase of hydroxyproline excretion in the urine after castration: can also be alleviated through treatment with estriol
[3]
  inactivation of estriol: inactivated extremely quickly
[4]; official statement / text book
  effectiveness for osteoporosis prophylaxis: ineffectiveness; also recorded: Not effective for osteoporosis prophylaxis
[5]
  anti-tumour effect: can prevent or suppress the development of mastocarcinomas; also recorded: proven anti-tumour effect
[6]
  anti-estrogen action: proved to have an anti-estrogen action
[7]
  osteoprotective effectiveness in the bones: developed no osteoprotective effectiveness in the bones
[8]; OVX + D1, estriol 0.1 μg/24 hrs, day 0 after castration (starting value), n = 8
  Hydroxyproline content in the serum: 30,55 μmol/1 l
[8]; [12]
  relative change of hydroxyproline content in the serum: 18,44%
[8]; OVX + D1, estriol 0.1 μg/24 hrs, day 7 after castration, n = 8
  Hydroxyproline content in the serum: 35,31 μmol/1 l
[8]; [16]
  relative change of hydroxyproline content in the serum: 11,66%
[8]; OVX + D1, estriol 0.1 μg/24 hrs, day 15 after castration, n = 8
  Hydroxyproline content in the serum: 33,36 μmol/1 l
[8]; OVX + D2, estriol 1.0 μg/24 hrs, day 0 after castration (starting value), n = 8
  Hydroxyproline content in the serum: 30,74 μmol/1 l
[8]; [17]
  relative change of hydroxyproline content in the serum: 8,82%
[8]; OVX + D2, estriol 1.0 μg/24 hrs, day 7 after castration, n = 8
  Hydroxyproline content in the serum: 33,20 μmol/1 l
[8]; [21]
  relative change of hydroxyproline content in the serum: 0,39%
[8]; OVX + D2, estriol 1.0 μg/24 hrs, day 15 after castration, n = 8
  Hydroxyproline content in the serum: 30,51 μmol/1 l
[8]; OVX + D3, estriol 10.0 μg/24 hrs, day 0 after castration (starting value), n = 8
  Hydroxyproline content in the serum: 28,16 μmol/1 l
[8]; [22]
  relative change of hydroxyproline content in the serum: -3,56%
[8]; OVX + D3, estriol 10.0 μg/24 hrs, day 7 after castration, n = 8
  Hydroxyproline content in the serum: 26,25 μmol/1 l
[8]; [26]
  relative change of hydroxyproline content in the serum: -23,81%
[8]; OVX + D3, estriol 10.0 μg/24 hrs, day 15 after castration, n = 8
  Hydroxyproline content in the serum: 20,90 μmol/1 l
[8]; OVX + D4, estriol 50.0 μg/24 hrs, day 0 after castration (starting value), n = 9
  Hydroxyproline content in the serum: 28,26 μmol/1 l
[8]; [27]
  relative change of hydroxyproline content in the serum: -8,87%
[8]; OVX + D4, estriol 50.0 μg/24 hrs, day 7 after castration, n = 9
  Hydroxyproline content in the serum: 25,45 μmol/1 l
[8]; [28]
  relative change of hydroxyproline content in the serum: -38,62%
[8]; OVX + D4, estriol 50.0 μg/24 hrs, day 15 after castration, n = 9
  Hydroxyproline content in the serum: 17,33 μmol/1 l
[8]; result in words, Table 2
  effect on increase of hydroxyproline in the blood after ovariectomy: this increase was suppressed through treatment with estriol in dose-dependent manner
[9]
  stimulation of uterine weights: does not significantly stimulate uterine weights

## C[C@]12CC[C@@H]3c4ccc(O)cc4CC[C@H]3[C@@H]1CC[C@@H]2O [estradiol]
[4]
  prevention of osteoporosis in the climacteric: can prevent advancing osteoporosis in the climacteric
[10]
  effect on arteriosclerotic vascular changes: can slow the advance of arteriosclerotic vascular changes
[11]
  suppression of ovulation in women: clearly possible

## C[C@]12CC[C@@H]3c4ccc(O)cc4CC[C@H]3[C@@H]1CCC2=O [estrone]
[4]
  prevention of osteoporosis in the climacteric: can prevent advancing osteoporosis in the climacteric
[10]
  effect on arteriosclerotic vascular changes: can slow the advance of arteriosclerotic vascular changes
